# Measurements published in publication PMC10022894, “Plant and prokaryotic TIR domains generate distinct cyclic ADPR NADase products” (Science Advances, 2023).
# What was measured:
# Assay type in all cases: biochemical
# AbTIR = target: T1, AbTIR (Acinetobacter baumannii, UniProt A0A009IHW8); experiment: in vitro NADase assay on bead-bound protein, LC-MS; conditions: […] NAD+, ~[…] C, […] h
# T1 construct: gene J512_3302; core TIR domain, residues 157-292; N-terminal Strep II and C-terminal 6xHis tags (pET30a+), E. coli BL21(DE3); catalytic E208
# T1 sequence (A0A009IHW8 134-269): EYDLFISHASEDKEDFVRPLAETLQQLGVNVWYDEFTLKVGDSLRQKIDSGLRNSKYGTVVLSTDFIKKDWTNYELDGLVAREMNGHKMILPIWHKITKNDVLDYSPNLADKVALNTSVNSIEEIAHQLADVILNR
# BdTIR = target: T2, BdTIR (Brachypodium distachyon, UniProt I1GTC2); experiment: in vitro NADase assay on bead-bound protein, LC-MS; conditions: […] NAD+, ~[…] C, […] h
# T2 construct: gene BRADI_1g24377v3; TIR-only protein; N-terminal Strep II and C-terminal 6xHis tags (pET30a+), E. coli BL21(DE3); catalytic E127
# T2 sequence (I1GTC2 1-224): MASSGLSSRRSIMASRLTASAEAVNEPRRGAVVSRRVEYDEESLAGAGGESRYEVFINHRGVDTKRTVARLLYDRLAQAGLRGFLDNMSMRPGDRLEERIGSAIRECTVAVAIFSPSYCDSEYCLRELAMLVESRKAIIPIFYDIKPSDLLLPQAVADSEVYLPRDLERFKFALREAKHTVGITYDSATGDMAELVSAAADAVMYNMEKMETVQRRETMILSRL
# ThsA = target: T3, ThsA (Bacillus cereus, UniProt J8G6Z1); experiment: in vitro NAD+ consumption; conditions: stimulated by NADase products of ThsB-Auto
# T3 construct: SIR2-type NADase with C-terminal SLOG domain; in vitro preparation not described in main text
# T3 sequence (J8G6Z1 whole entry, the tested form may be a part): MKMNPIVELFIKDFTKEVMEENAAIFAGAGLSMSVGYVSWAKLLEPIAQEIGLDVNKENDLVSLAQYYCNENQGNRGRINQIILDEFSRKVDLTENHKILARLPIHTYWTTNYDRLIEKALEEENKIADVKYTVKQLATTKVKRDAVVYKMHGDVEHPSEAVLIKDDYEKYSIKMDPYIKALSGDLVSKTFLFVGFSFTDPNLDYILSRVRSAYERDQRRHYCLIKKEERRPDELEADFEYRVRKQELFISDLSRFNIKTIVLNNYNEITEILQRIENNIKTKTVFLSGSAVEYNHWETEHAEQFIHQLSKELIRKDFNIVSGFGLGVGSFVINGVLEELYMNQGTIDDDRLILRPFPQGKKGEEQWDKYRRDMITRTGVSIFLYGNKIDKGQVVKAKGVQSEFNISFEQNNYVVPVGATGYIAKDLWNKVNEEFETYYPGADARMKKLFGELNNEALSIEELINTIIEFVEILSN
# HopAM1 = target: T4, HopAM1 (Pseudomonas syringae group genomosp. 3, UniProt Q877R9); experiment: in vitro NADase assay on bead-bound protein, LC-MS; conditions: […] NAD+, ~[…] C, […] h
# T4 construct: gene hopAM1-1; TIR effector; N-terminal Strep II and C-terminal 6xHis tags (pET30a+), E. coli BL21(DE3)
# T4 sequence (Q877R9 whole entry): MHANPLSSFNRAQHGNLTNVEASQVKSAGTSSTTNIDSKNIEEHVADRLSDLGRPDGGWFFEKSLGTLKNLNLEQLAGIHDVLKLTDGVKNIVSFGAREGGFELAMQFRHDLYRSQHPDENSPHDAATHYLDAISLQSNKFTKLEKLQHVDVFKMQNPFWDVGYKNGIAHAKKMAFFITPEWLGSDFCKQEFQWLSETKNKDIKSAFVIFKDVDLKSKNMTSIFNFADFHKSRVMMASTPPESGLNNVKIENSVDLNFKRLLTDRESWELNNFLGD
smiles,measurement,setting,value
NC(=O)c1ccc[n+]([C@@H]2O[C@H](COP(=O)(O)OP(=O)(O)OC[C@H]3O[C@@H](n4cnc5c(N)ncnc54)[C@H](O)[C@@H]3O)[C@@H](O)[C@H]2O)c1 [NAD^+],"in vitro NADase assay on bead-bound protein, LC-MS",AbTIR,"we compared the in vitro NADase products of ThsB-Auto, BdTIR, AbTIR, and HopAM1"
same,"in vitro NADase assay on bead-bound protein, LC-MS",BdTIR,"we compared the in vitro NADase products of ThsB-Auto, BdTIR, AbTIR, and HopAM1"
same,in vitro NAD+ consumption,ThsA,NADase products of ThsB-Auto could stimulate NAD^+ consumption by ThsA in vitro
same,"in vitro NADase assay on bead-bound protein, LC-MS",HopAM1,"we compared the in vitro NADase products of ThsB-Auto, BdTIR, AbTIR, and HopAM1"
